Test results: ChEMBL document CHEMBL3112442, “Anilino-monoindolylmaleimides as potent and selective JAK3 inhibitors” (Bioorg Med Chem Lett, 2014)

Tests used:
[1] = molecular target: Non-receptor tyrosine-protein kinase TYK2 (Homo sapiens, UniProt P29597)
[2] = molecular target: Tyrosine-protein kinase JAK1 (Homo sapiens, UniProt P23458)
[3] = molecular target: T1, Tyrosine-protein kinase JAK3 (Homo sapiens, UniProt P52333)
T1 sequence (P52333 whole entry): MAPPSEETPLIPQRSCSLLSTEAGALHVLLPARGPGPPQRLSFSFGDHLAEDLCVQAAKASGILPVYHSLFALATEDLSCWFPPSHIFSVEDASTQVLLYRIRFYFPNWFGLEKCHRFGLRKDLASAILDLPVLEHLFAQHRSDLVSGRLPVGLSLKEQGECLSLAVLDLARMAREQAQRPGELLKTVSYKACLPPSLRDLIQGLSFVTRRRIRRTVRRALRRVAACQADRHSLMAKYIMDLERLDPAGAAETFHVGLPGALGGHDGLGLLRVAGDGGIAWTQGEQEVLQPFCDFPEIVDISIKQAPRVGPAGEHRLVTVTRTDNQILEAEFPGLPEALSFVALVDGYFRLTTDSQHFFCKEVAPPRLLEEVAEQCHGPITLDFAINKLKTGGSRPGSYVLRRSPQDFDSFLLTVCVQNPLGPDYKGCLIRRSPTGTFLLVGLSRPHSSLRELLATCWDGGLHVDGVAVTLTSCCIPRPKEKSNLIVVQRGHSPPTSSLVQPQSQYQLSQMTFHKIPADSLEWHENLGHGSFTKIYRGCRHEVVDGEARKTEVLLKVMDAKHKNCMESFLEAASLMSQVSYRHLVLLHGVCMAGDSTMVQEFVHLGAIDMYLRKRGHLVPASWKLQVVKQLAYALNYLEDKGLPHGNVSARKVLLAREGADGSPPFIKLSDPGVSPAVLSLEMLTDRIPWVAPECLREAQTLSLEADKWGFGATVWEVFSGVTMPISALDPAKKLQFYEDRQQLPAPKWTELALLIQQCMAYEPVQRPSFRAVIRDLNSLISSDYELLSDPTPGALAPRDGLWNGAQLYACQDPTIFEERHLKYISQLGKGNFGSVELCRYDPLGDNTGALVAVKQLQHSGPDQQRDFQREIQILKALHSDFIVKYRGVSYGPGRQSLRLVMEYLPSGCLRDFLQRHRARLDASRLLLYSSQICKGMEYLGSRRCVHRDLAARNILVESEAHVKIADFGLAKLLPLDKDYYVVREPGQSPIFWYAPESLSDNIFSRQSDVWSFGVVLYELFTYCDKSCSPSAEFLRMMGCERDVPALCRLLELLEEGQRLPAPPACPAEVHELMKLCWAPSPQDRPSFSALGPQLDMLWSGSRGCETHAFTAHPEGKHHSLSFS

Chain of Tyrosine-protein kinase JAK1 (P23458 whole entry): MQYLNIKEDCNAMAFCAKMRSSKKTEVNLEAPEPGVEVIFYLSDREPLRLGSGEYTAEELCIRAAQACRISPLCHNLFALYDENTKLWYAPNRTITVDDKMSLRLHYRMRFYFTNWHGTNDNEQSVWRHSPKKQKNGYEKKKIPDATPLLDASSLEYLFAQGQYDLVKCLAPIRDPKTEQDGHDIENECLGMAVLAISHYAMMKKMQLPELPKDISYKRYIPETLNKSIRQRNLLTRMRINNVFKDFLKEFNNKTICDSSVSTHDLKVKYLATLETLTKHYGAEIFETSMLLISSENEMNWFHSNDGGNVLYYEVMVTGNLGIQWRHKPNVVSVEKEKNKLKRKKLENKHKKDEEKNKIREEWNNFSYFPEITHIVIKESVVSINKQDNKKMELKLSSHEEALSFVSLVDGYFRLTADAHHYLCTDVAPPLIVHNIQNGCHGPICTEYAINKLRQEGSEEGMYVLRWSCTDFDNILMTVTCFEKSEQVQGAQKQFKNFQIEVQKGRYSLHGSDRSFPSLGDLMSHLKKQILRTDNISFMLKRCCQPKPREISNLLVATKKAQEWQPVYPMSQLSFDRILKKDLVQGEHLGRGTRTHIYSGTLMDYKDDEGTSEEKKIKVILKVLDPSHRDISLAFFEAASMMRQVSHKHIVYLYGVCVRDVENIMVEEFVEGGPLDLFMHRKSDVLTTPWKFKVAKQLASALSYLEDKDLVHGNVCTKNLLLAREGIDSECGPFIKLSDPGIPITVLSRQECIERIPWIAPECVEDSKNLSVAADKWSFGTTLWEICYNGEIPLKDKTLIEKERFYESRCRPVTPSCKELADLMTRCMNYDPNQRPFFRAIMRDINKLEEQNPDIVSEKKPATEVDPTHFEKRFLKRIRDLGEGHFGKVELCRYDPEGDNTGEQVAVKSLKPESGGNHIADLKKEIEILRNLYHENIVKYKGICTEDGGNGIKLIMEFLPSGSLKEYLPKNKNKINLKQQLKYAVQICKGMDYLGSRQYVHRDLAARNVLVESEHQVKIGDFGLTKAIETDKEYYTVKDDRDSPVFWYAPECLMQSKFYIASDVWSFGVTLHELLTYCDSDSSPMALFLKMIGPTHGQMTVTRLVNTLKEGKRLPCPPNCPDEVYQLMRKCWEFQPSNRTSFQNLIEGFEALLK
Chain of Non-receptor tyrosine-protein kinase TYK2 (P29597 whole entry): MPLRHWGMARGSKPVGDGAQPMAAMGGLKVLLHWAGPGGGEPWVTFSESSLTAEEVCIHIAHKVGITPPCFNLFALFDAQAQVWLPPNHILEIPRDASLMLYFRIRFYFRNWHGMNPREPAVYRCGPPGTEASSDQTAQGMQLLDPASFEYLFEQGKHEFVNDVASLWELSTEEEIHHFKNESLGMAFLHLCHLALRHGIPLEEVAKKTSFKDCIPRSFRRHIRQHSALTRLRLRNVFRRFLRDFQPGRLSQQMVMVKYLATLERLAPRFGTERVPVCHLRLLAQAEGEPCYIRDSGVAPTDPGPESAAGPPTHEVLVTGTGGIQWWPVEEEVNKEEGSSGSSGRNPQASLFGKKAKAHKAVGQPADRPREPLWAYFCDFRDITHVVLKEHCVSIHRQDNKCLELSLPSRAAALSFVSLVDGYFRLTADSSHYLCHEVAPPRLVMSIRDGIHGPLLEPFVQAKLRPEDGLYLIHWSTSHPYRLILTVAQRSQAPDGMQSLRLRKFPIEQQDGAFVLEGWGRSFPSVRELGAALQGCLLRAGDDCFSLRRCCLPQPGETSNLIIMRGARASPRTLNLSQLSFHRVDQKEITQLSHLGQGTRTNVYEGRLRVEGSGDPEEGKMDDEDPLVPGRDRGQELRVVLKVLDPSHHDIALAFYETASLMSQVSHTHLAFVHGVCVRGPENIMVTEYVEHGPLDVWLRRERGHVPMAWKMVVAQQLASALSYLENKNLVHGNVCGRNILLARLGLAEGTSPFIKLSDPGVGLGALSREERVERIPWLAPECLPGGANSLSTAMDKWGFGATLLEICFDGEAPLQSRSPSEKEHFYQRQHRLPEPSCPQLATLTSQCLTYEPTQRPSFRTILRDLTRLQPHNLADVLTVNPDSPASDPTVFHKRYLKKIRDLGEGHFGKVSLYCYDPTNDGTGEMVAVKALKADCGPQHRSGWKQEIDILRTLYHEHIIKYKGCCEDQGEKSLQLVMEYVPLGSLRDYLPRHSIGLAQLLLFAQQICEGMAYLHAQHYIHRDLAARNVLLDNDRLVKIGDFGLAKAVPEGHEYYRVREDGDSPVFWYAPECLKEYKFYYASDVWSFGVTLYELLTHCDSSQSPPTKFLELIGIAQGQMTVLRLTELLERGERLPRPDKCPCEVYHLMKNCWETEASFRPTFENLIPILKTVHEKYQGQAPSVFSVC

Row | IC50 [1] [µM] | IC50 [2] [µM] | IC50 [3] [µM] | SMILES
1 | 1.69 | 0.311 |  | CC(C)(O)C(=O)N1CCN(c2ccc(C(F)(F)F)c(C3=C(c4c[nH]c5ccccc45)C(=O)NC3=O)c2)CC1
2 |  | 0.628 | 0.013 | O=C1NC(=O)C(c2c[nH]c3ccccc23)=C1Nc1cccc(O[C@H]2CCN(c3ccnc(F)c3)C2)c1
3 | > 10 | 4.9 | 0.497 | O=C1NC(=O)C(c2c[nH]c3ccccc23)=C1Nc1cccc(O[C@@H]2CCN(c3ccnc(F)c3)C2)c1
4 | > 10 | > 10 | > 10 | O=C1NC(=O)C(c2c[nH]c3ccccc23)=C1Nc1cccc(C2CCN(c3ccnc(F)c3)CC2)c1
5 | > 10 | 11.1 | 0.576 | O=C1NC(=O)C(c2c[nH]c3ccccc23)=C1Nc1cccc(C2CN(c3ccnc(F)c3)C2)c1
6 | > 10 | 0.3 | 0.128 | O=C1NC(=O)C(c2c[nH]c3ccccc23)=C1Nc1cccc(OCCCn2ccnc2)c1
7 | > 10 | > 10 | 1.79 | O=C1NC(=O)C(c2c[nH]c3ccccc23)=C1Nc1cccc(OCCn2ccnc2)c1
8 | 7.37 | > 10 | 0.278 | O=C1NC(=O)C(c2c[nH]c3ccccc23)=C1Nc1ccc(OCCn2ccnc2)cc1
9 | > 10 | 8.64 | 1.15 | O=C1NC(=O)C(c2c[nH]c3ccccc23)=C1Nc1ccc(OCCCn2ccnc2)cc1
10 | > 10 | > 10 | 9.37 | O=C1NC(=O)C(c2c[nH]c3ccccc23)=C1Nc1ccccc1OCCn1ccnc1
11 | > 10 | 1.06 | 0.135 | O=C1NC(=O)C(c2c[nH]c3ccccc23)=C1Nc1ccc(OCCCNc2ccnc(F)c2)cc1
12 | 9.84 | 2.06 | 0.201 | O=C1NC(=O)C(c2c[nH]c3ccccc23)=C1Nc1ccc(OCCNc2ccnc(F)c2)cc1
13 | > 10 | > 10 | > 10 | O=C1NC(=O)C(c2c[nH]c3ccccc23)=C1Nc1ccccc1OCCNc1ccnc(F)c1
14 | > 10 | 0.423 | 0.029 | O=C1NC(=O)C(c2c[nH]c3ccccc23)=C1Nc1cccc(OCCNc2ccnc(F)c2)c1
15 | 5.1 | 1.78 | 0.179 | Cn1cc(C2=C(Nc3cccc(OCCNc4ccnc(F)c4)c3)C(=O)NC2=O)c2ccccc21
16 | 0.995 | > 10 | 0.046 | CN(CCOc1cccc(NC2=C(c3c[nH]c4ccccc34)C(=O)NC2=O)c1)c1ccnc(F)c1
17 |  |  | 1.5 | O=C1NC(=O)C(c2c[nH]c3ccccc23)=C1Nc1cccc(OCCNc2ccccn2)c1
18 |  |  | 0.408 | O=C1NC(=O)C(c2c[nH]c3ccccc23)=C1Nc1cccc(OCCNc2cnccn2)c1
19 |  |  | 1.38 | O=C1NC(=O)C(c2c[nH]c3ccccc23)=C1Nc1cccc(OCCNc2ccccc2)c1
20 |  |  | 1.39 | O=C1NC(=O)C(c2c[nH]c3ccccc23)=C1Nc1cccc(OCCNc2cc(F)cc(F)c2)c1
21 | > 10 | 2.17 | 0.576 | O=C1NC(=O)C(c2ccccc2)=C1Nc1cccc(OCCNc2ccnc(F)c2)c1
22 | > 10 | > 10 | > 10 | O=C1C=C(Nc2cccc(OCCNc3ccnc(F)c3)c2)C(=O)N1
23 | > 10 | 4.82 | 0.625 | O=C1NC(=O)C(c2c[nH]c3ccccc23)=C1Nc1cccc(OC2CCN(c3ccnc(F)c3)CC2)c1
24 | > 10 | 4.1 | 0.2 | O=C1NC(=O)C(c2c[nH]c3ccccc23)=C1Nc1cccc(OC2CN(c3ccnc(F)c3)C2)c1
25 | 2.31 | 0.77 | 0.017 | O=C1NC(=O)C(c2cn(CCCn3ccnc3)c3ccccc23)=C1Nc1ccccc1
26 | > 10 | > 10 | > 10 | O=C1NC(=O)C(c2c[nH]c3ccccc23)=C1Nc1cccc(C2CCN(c3ccnc(F)c3)C2)c1 (racemic)
27 | > 10 | > 10 | 0.163 | O=C1NC(=O)C(c2c[nH]c3ccccc23)=C1Nc1cccc(OC2CCCN(c3ccnc(F)c3)C2)c1 (racemic)
28 | 11.9 | 0.564 | 0.012 | O=C1NC(=O)C(c2c[nH]c3ccccc23)=C1Nc1cccc(OC2CCN(c3ccnc(F)c3)C2)c1 (racemic)
